# Tests used:
# [1] = tested on: T24 cells; assay: T24 cell proliferation during and after treatment (cell counting); format: cell-based, human
# From the text: To study the effect of specific inhibition of DNA MeTase on cell growth, cellular proliferation rates were monitored both during the treatment and post treatment periods to determine the duration of the effect. […] During and following treatment, cells were counted. […] To determine whether the transient re-expression of p16^ink4A and growth-inhibitory effects induced by short term treatment with MG88 were due to the expansion of a less affected (less demethylated) population of cells within the treated population, or to rapid inactivation of p16^ink4A after MG88 withdrawal, single cell clones were isolated after treatment. Several MG88 clones were, in fact, p16^ink4A negative, confirming that the MG88 treatment produced a mixed population of p16^ink4A positive and negative cells.
# [2] = target: human DNA MeTase mRNA; assay: Antisense inhibition of DNA MeTase mRNA (screen of phosphorothioate oligonucleotides); format: cell-based
# From the text: As shown in FIG. 1 the two […] regions were identified to be highly sensitive to antisense inhibition were targeted by MG88 having the sequence [NT] ID NO:1) (this oligonucleotide is targeted to the […] 5'UTR at nucleotides 532 to 513) and MG98 having the sequence [NT] ID NO:2) (this oligonucleotide is targeted to the […] 3'UTR at nucleotides 5218 to 5199). These oligonucleotides were chemically modified as follows: A equals 2'-deoxyriboadenosine; C equals 2'-deoxyribocytidine; G equals 2'-deoxyriboguanosine; T equals 2'-deoxyribothymidine; A equals riboadenosine; U equals uridine; C equals ribocytidine; and G equals riboguanosine. The underlined bases were 2'-methoxyribose substituted nucleotides. Non-underlined bases indicate deoxyribose nucleosides. The backbone of each oligonucleotide consisted of a phosphorothioate linkage between adjoining nucleotides.
# [3] = tested on: pRb; assay: Western blotting for phosphorylated pRb in T24 cells; format: cell-based, human; conditions: T24 cells reactivated to express p16^ink4A after transfection
# [4] = tested on: p21^WAF1 mRNA; assay: RNase protection assay for p21 mRNA in T24 cells; format: cell-based, human; conditions: 40 nM, 24 or 48 hours
# Protocol: Next, to determine if p21^WAF1 was induced at the transcriptional level, RNase protection assay were performed on cells treated with 40 nM of either MG88 or MG208 for either 24 or 48 hours. Total cellular RNA was isolated from the cells and analysed for p21 mRNA, p27 mRNA, and p18 mRNA using the human cell cycle-2 (hcc-2) multiprobe RNase protection kit commercially available from PharMingen, San Diego, Calif.). RNA loading was determined to be equal using the signals from two housekeeping genes, L32 and GAPDH.
# [5] = tested on: p16^ink4A promoter; assay: Methylation specific PCR and bisulfite genomic sequencing of the p16^ink4A promoter in T24 cells; format: cell-based, human
# Protocol: To identify changes in the methylation status of the p16^ink4A promoter induced by MG88 treatment, methylation specific PCR (MSP) and bisulfite genomic sequencing was performed as previously described ([…] et al. (1994) Nat. Gen. 8: 27-32; Frommer et al. (1991) Proc. Nat. Acad. Sci. USA 89: […]). […] Briefly, the Oncor p16 detection system was used (commercially available from Oncor, Gaithersburg, Md.). PCR was performed in a total volume of 25 μl under the following conditions: 100 ng bisulfate-treated DNA (Oncor),10 mM Tris-HCl, pH 8.3, […], 1.5 mM MgCl2, 250 μM dNTPs, 80 ng of each of the following primers ([NT] sense (SEQ ID NO: 79) and [NT] antisense (SEQ ID NO: 80)) and 1 unit of AmpliTaq Gold (Perkin-Elmer). The denaturation cycle was 95° C. for 12 min followed by 35 cycles at 95° C. for 45 seconds, 60° C. for 45 seconds, and 72° C. for 60 seconds, and an elongation cycle of 72° C. for 10 minutes. the PCR product (5 μl) was analyzed on a 2% agarose gel. The unmethylated (U) and demethylated (D) primers (commercially available from Oncor) were used at the same conditions as the specific primers.
# [6] = tested on: p16^ink4A protein; assay: p16^ink4A protein by immunoprecipitation and Western blotting in T24 cells; format: cell-based, human
# From the text: The cyclin-dependent kinase inhibitor (CDKI) p16^ink4A regulates the transition from G1 to S-phases of the cell cycle (Serrano et al. (1993) Nature 366: 704-707). Inactivation of p16^ink4A is one of the most frequently observed abnormalities in human cancer (Serrano et al., supra). Transcriptional inactivation and associated hypermethylation of the p16^ink4A promote region have also been observed in virtually all types of cancer (Gonzales-Zulueta et al. (1995) Cancer Res. 55: 4531-4535; Merlo et al. (1995) Nat. Med. 7: 686-692; Costello et al. (1996) Cancer Res. 56: 2405-2410; Lo et al., Cancer Res. 56: 2721-2725). To investigate the effect of specifically reducing cellular DNA MeTase levels on the expression and methylation status of a silenced p16^ink4A gene, T24 human bladder cancer cells that contain a hypermethylated and silenced p16^ink4A gene were transfected with 40 nM or 75 nM MG88 or control oligonucleotide MG208 with 6.25 μg/ml lipofectin for four hours each day for up to 10 consecutive days. On days 3, 5, 8, and 10, p16^ink4A protein levels were then analyzed by immunoprecipitation followed by Western blotting analysis with a p16^ink4A protein-specific antibody (PharMingen). HeLa cells were used as a positive (+) control for p16^ink4A protein expression.
# Next, to determine whether de novo methylation and silencing of the re-expressed p16^ink4A gene occurred when DNA MeTase returned to normal levels, T24 cells were transfected for 10 consecutive days with either 40 or 75 nM or MG88 or MG208. […] Cell lysates of the T24 cells transfected for ten days were analyzed by Western blotting analysis for expression of DNA MeTase protein,p16^ink4A protein, and actin protein (as a control for equal loading) 3, 5, and 7 days after MG88 transfection.
substance,measurement,setting,value
5′-AAGCAT GAG CAC CGT TCUCC-3′ [MG88],antiproliferative and cell death effect,"[1]; 75 nM, 10 consecutive days",significant antiproliferative and cell death inducing effect
same,cell proliferation during treatment,"[1]; 75 nM, days 0-5, relative to lipofectin",dramatically inhibited cell proliferation
same,persistence of inhibition of cell proliferation,[1]; after 5 day treatment with 75 nM,approximately one week post-treatment
same,IC50,[2],40 nM
same,phosphorylated forms of pRb,[3],decrease in the amount of phosphorylated forms of pRb
same,p21^WAF1 mRNA,[4],no increase in p21^WAF1 mRNA
same,demethylated CpG sites of p16^ink4A promoter (bisulfite sequencing),"[5]; T24 cells, day 5 of treatment, 15 sites in all",15 CpG sites
same,re-methylated sites of p16^ink4A promoter,"[5]; T24 cells, three days after cessation of treatment",13 of 15
same,demethylation of the p16^ink4A promoter region (MSP),"[5]; T24 cells, treated 3, 5, 9 or 10 days",occurred as early as day 3 of MG88 treatment
same,methylation of p16^ink4A promoter in positive clone C4-5,[5]; thirty days after a five day treatment (75 nM),completely non methylated at all CpG sites evaluated
same,induction of expression of p16^ink4A protein,"[6]; 40 nM or 75 nM, 4 h each day up to 10 days",detected after 5 days of treatment
same,p16^ink4A protein level post-treatment,[6]; after 10 day treatment with 40 nM,barely detectable at day 7 post-treatment

# Reference: patent publication US6953783B1, “Modulation of gene expression by combination therapy” (MethylGene, Inc., priority 1998, dated 2005)
